# Results reported in PMC9516332 (Frontiers in Oncology, 2022).
# Where two headings read alike, the source gives them in different places.
# Tested on: 134 cancer cell lines
# Experiment: Cell viability assay (ATPlite, 72 hours), IC50 on cancer cell line panel
smiles,measurement,setting,value
CCc1cc2c(cc1N1CCC(N3CCOCC3)CC1)C(C)(C)c1[nH]c3cc(C#N)ccc3c1C2=O [alectinib],IC50,"Homo sapiens, LS-411N, read-out: IC50 in cell proliferation assay",> 10 µM
same,IC50,"Homo sapiens, LoVo, read-out: IC50 in cell proliferation assay",> 10 µM
same,IC50,"Homo sapiens, MCF7, read-out: IC50 in cell proliferation assay",> 10 µM
same,IC50,"Homo sapiens, MDA-MB-231, read-out: IC50 in cell proliferation assay",> 10 µM
same,IC50,"Homo sapiens, MDA-MB-453, read-out: IC50 in cell proliferation assay",> 10 µM
same,IC50,"Homo sapiens, MDA-MB-468, read-out: IC50 in cell proliferation assay",> 10 µM
same,IC50,"Homo sapiens, MG-63, read-out: IC50 in cell proliferation assay",> 10 µM
same,IC50,"Homo sapiens, MIA PaCa-2, read-out: IC50 in cell proliferation assay",> 10 µM
same,IC50,"Homo sapiens, MKN-45, read-out: IC50 in cell proliferation assay",> 10 µM
same,IC50,"Homo sapiens, MOLM-13, read-out: IC50 in cell proliferation assay",0.99 µM
same,IC50,"Homo sapiens, MOLT-4, read-out: IC50 in cell proliferation assay",> 10 µM
same,IC50,"Homo sapiens, MV4-11, read-out: IC50 in cell proliferation assay",1.07 µM
same,IC50,"Homo sapiens, MeWo, read-out: IC50 in cell proliferation assay",> 10 µM
same,IC50,"Homo sapiens, NCCIT, read-out: IC50 in cell proliferation assay",> 3.16 µM
same,IC50,"Homo sapiens, NCI-H82, read-out: IC50 in cell proliferation assay",> 10 µM
same,IC50,"Homo sapiens, NCI-H460, read-out: IC50 in cell proliferation assay",> 10 µM
same,IC50,"Homo sapiens, NCI-H661, read-out: IC50 in cell proliferation assay",> 10 µM
same,IC50,"Homo sapiens, NCI-H716, read-out: IC50 in cell proliferation assay",2.51 µM
same,IC50,"Homo sapiens, NCI-H1650, read-out: IC50 in cell proliferation assay",1.66 µM
same,IC50,"Homo sapiens, NCI-H1975, read-out: IC50 in cell proliferation assay",0.743 µM
same,IC50,"Homo sapiens, NCI-H2228, read-out: IC50 in cell proliferation assay",0.039 µM
same,IC50,"Homo sapiens, OVCAR-3, read-out: IC50 in cell proliferation assay",> 10 µM
same,IC50,"Homo sapiens, PFSK-1, read-out: IC50 in cell proliferation assay",3.48 µM
same,IC50,"Homo sapiens, RL95-2, read-out: IC50 in cell proliferation assay",1.33 µM
same,IC50,"Homo sapiens, RPMI-7951, read-out: IC50 in cell proliferation assay",> 10 µM
same,IC50,"Homo sapiens, RS4-11, read-out: IC50 in cell proliferation assay",> 10 µM
same,IC50,"Homo sapiens, Rec1, read-out: IC50 in cell proliferation assay",1.24 µM
same,IC50,"Homo sapiens, SHP77, read-out: IC50 in cell proliferation assay",> 10 µM
same,IC50,"Homo sapiens, SK-BR-3, read-out: IC50 in cell proliferation assay",> 10 µM
same,IC50,"Homo sapiens, SK-N-AS, read-out: IC50 in cell proliferation assay",7.73 µM
same,IC50,"Homo sapiens, SK-N-FI, read-out: IC50 in cell proliferation assay",7.44 µM
same,IC50,"Homo sapiens, SK-N-MC, read-out: IC50 in cell proliferation assay",> 10 µM
same,IC50,"Homo sapiens, SK-N-SH, read-out: IC50 in cell proliferation assay",2.43 µM
same,IC50,"Homo sapiens, SNU-5, read-out: IC50 in cell proliferation assay",> 10 µM
same,IC50,"Homo sapiens, SNU-16, read-out: IC50 in cell proliferation assay",> 10 µM
same,IC50,"Homo sapiens, SNU-C2B, read-out: IC50 in cell proliferation assay",> 10 µM
same,IC50,"Homo sapiens, SU-DHL-1, read-out: IC50 in cell proliferation assay",0.432 µM
same,IC50,"Homo sapiens, SU-DHL-6, read-out: IC50 in cell proliferation assay",> 10 µM
same,IC50,"Homo sapiens, SUP-T1, read-out: IC50 in cell proliferation assay",> 10 µM
same,IC50,"Homo sapiens, SW48, read-out: IC50 in cell proliferation assay",> 10 µM
same,IC50,"Homo sapiens, SW480, read-out: IC50 in cell proliferation assay",> 10 µM
same,IC50,"Homo sapiens, SW626, read-out: IC50 in cell proliferation assay",> 10 µM
same,IC50,"Homo sapiens, SW780, read-out: IC50 in cell proliferation assay",1.67 µM
same,IC50,"Homo sapiens, SW837, read-out: IC50 in cell proliferation assay",> 10 µM
same,IC50,"Homo sapiens, SW872, read-out: IC50 in cell proliferation assay",> 10 µM
same,IC50,"Homo sapiens, SW900, read-out: IC50 in cell proliferation assay",> 10 µM
same,IC50,"Homo sapiens, SW948, read-out: IC50 in cell proliferation assay",> 10 µM
same,IC50,"Homo sapiens, SW982, read-out: IC50 in cell proliferation assay",> 10 µM
same,IC50,"Homo sapiens, SW-620, read-out: IC50 in cell proliferation assay",> 10 µM
same,IC50,"Homo sapiens, T98G, read-out: IC50 in cell proliferation assay",> 10 µM
same,IC50,"Homo sapiens, TCC-SUP, read-out: IC50 in cell proliferation assay",3.7 µM
same,IC50,"Homo sapiens, THP-1, read-out: IC50 in cell proliferation assay",> 10 µM
same,IC50,"Homo sapiens, U2OS, read-out: IC50 in cell proliferation assay",3.79 µM
same,IC50,"Homo sapiens, U-87 MG, read-out: IC50 in cell proliferation assay",3.1 µM
same,IC50,"Homo sapiens, U-118-MG, read-out: IC50 in cell proliferation assay",3.33 µM
same,IC50,"Homo sapiens, UMUC3, read-out: IC50 in cell proliferation assay",3.3 µM
same,IC50,"Hs766T, read-out: IC50 in cell proliferation assay",> 10 µM
same,IC50,"L-82, read-out: IC50 in cell proliferation assay",0.037 µM
same,IC50,"Rh30, read-out: IC50 in cell proliferation assay",> 10 µM
